US6277854A, “Tricyclic antitumor farnesyl protein transferase inhibitors” (Schering Corporation, priority 1999, dated 2001)

target: farnesyl protein transferase; assay: In vitro enzyme assay: inhibition of farnesyl protein transferase (FPT), [3H]farnesyl transfer to Ras-CVLS; assay type: biochemical, rat (brain); human (expressed in E. coli); settings: not given
Excerpt: 1. In vitro enzyme assays: Inhibition of famesyl protein transferase and geranylgeranyl protein transferase.
Farnesyl protein transferase (FPT) was partially purified from rat brain by ammonium sulfate fractionation followed by Q-Sepharose (Pharmacia, Inc.) anion exchange chromatography essentially as described by Yokoyama et al (Yokoyama, K., et al., (1991), A protein geranylgeranyltransferase from bovine brain: Implications for protein prenylation specificity, Proc. Natl. Acad. Sci USA 88: 5302-5306, the disclosure of which is incorporated herein by reference thereto). Human famesyl protein transferase was also expressed in E. coli, using cDNA clones encoding both the a and b subunits. The methods used were similar to those published (Omer, C. et al., (1993), Characterization of recombinant human famesyl protein transferase: Cloning, expression, farnesyl diphosphate binding, and functional homology with yeast prenyl-protein transferases, Biochemistry 32:5167-5176). Human famesyl protein transferase was partially-purified from the soluble protein fraction of E. coli as described above. […] Two forms of val^12 -Ha-Ras protein were prepared as substrates for these enzymes, differing in their carboxy terminal sequence. One form terminated in cysteine-valine-leucine-serine (Ras-CVLS) the other in cystein-valine-leucine-leucine (Ras-CVLL). Ras-CVLS is a substrate for the famesyl protein transferase while Ras-CVLL is a substrate for geranylgeranyl protein transferase I. The cDNAs encoding these proteins were constructed so that the proteins contain an amino-terminal extension of 6 histidine residues. Both proteins were expressed in Escherichia coli and purified using metal chelate affinity chromatography. The radiolabelled isoprenyl pyrophosphate substrates, [^3 H]farnesyl pyrophosphate and [^3 H]geranylgeranyl pyrophosphate, were purchased from DuPon/New England Nuclear.
Several methods for measuring farnesyl protein transferase activity have been described (Reiss et al 1990, Cell 62: 81; Schaber et al 1990, J. Biol. Chem. 265: 14701; Manne et al 1990, PNAS 87: 7541; and Barbacid & Manne 1993, U.S. Pat. No. 5,185,248). […] The reaction was allowed to proceed for 30 minutes at room temperature and then stopped with 0.5 ml of 4% sodium dodecyl sulfate (SDS) followed by 0.5 ml of cold 30% TCA. Samples were allowed to sit on ice for 45 minutes and precipitated Ras protein was then collected on GF/C filter paper mats using a Brandel cell harvester. Filter mats were washed once with 6% TCA, 2% SDS and radioactivity was measured in a Wallac 1204 Betaplate BS liquid scintillation counter. Percent inhibition was calculated relative to the DMSO vehicle control.

| SMILES | IC50 [nM] |
| --- | --- |
| CN(C)CCCC(=O)N1CCC(C2c3ncc(Br)cc3CCc3cc(Cl)cc(Br)c32)CC1 (single isomer, unassigned; (+)) [Example 2, (+)-4-(3,10-DIBROMO-8-CHLORO-6,11-DIHYDRO-5H-BENZO[5,6]-CYCLO-HEPTA[1,2-b]PYRIDIN-11-YL)-1-[4-(DIMETHYLAMINO)-1-OXOBUTYL]PIPERIDINE] | 4 |
| CN(C)C(=O)CCC(=O)N1CCC(C2c3ncc(Br)cc3CCc3cc(Cl)cc(Cl)c32)CC1 (single isomer, unassigned) [Example 13] | 15 |
| COC(=O)CCCCC(=O)N1CCC([C@H]2c3ncc(Br)cc3CCc3cc(Cl)cc(Br)c32)CC1 [Example 54, (+)-METHYL 4-(3,10-DIBROMO-8-CHLORO-6,11-DIHYDRO-5H-BENZO[5,6]CYCLO-HEPTA[1,2-b]PYRIDIN-11(R)-YL)-EPSILON-OXO-1-PIPERIDININE HEXANOATE] | 15 |
| CCN(CC)CCC(=O)N1CCC(C2c3ncc(Br)cc3CCc3cc(Cl)cc(Cl)c32)CC1 (single isomer, unassigned) [Example 8] | 14 |
| NC(=O)CCC(=O)N1CCC([C@H]2c3ncc(Br)cc3CCc3cc(Cl)cc(Br)c32)CC1 [Example 50, (+)-4-(3,10-DIBROMO-8-CHLORO-6,11-DIHYDRO-5H-BENZO[5,6]CYCLO-HEPTA[1,2-b]PYRIDIN-11(R)-YL)-GAMMA-OXO -1-PIPERIDININE BUTANAMIDE] | 14 |
| O=C(O)CC(=O)N1CCC([C@H]2c3ncc(Br)cc3CCc3cc(Cl)cc(Br)c32)CC1 [Example 46, (+)-SODIUM 4-(3,10-DIBROMO-8-CHLORO-6,11-DIHYDRO-5H-BENZO[5,6]CYCLO-HEPTA[1,2-b]PYRIDIN-11(R)-YL)-BETA-OXO-1-PIPERIDININE PROPANOATE] | 78 |
| NCCCC(=O)N1CCC(C2c3ncc(Br)cc3CCc3cc(Cl)cc(Cl)c32)CC1 (single isomer, unassigned; (+)) [Example 27, (+)-1-(4-AMINO-1-OXOBUTYL)-4-(3-BROMO-8,10-DICHLORO-6,11-DIHYDRO-5H-BENZO[5,6]CYCLO-HEPTA[1,2-b]PYRIDIN-11-YL) PIPERIDINE] | 130 |
| NC(=O)CCCC(=O)N1CCC([C@H]2c3ncc(Br)cc3CCc3cc(Cl)cc(Br)c32)CC1 [Example 53, (+)-4-(3,10-DIBROMO-8-CHLORO-6,11-DIHYDRO-5H-BENZO[5,6]CYCLO-HEPTA[1,2-b]PYRIDIN-11(R)-YL)-DELTA-OXO-1-PIPERIDININE PENTANAMIDE] | 10 |
| COC(=O)CCC(=O)N1CCC([C@H]2c3ncc(Br)cc3CCc3cc(Cl)cc(Br)c32)CC1 [Example 48, (+)-METHYL 4-(3,10-DIBROMO-8-CHLORO-6,11-DIHYDRO-5H-BENZO[5,6]CYCLO-HEPTA[1,2-b]PYRIDIN-11(R)-YL)-GAMMA-OXO -1-PIPERIDININE BUTANOATE] | 9 |
| O=C(CCN1CCCCC1)N1CCC(C2c3ncc(Br)cc3CCc3cc(Cl)cc(Cl)c32)CC1 (single isomer, unassigned) [Example 9] | 6 |
| O=C(NCCCC(=O)N1CCC(C2c3ncc(Br)cc3CCc3cc(Cl)cc(Cl)c32)CC1)Nc1ccccc1 (single isomer, unassigned) [Example 16] | > 100 |
| CN(C)CC(=O)N1CCC(C2c3ncc(Br)cc3CCc3cc(Cl)cc(Cl)c32)CC1 (single isomer, unassigned) [Example 4] | 380 |
| CC(=O)NCCCC(=O)N1CCC(C2c3ncc(Br)cc3CCc3cc(Cl)cc(Cl)c32)CC1 (single isomer, unassigned) [Example 15] | 63 |
| CC(C)(C)OC(=O)NCC(=O)N1CCC(C2c3ncc(Br)cc3CCc3cc(Cl)cc(Cl)c32)CC1 (centres unmarked) [Example 26] | 540 |
| O=C(CN1CCCC1=O)N1CCC(C2c3ncc(Br)cc3CCc3cc(Cl)cc(Cl)c32)CC1 (single isomer, unassigned) [Example 10] | 19 |
| NCC(=O)N1CCC(C2c3ncc(Br)cc3CCc3cc(Cl)cc(Cl)c32)CC1 (single isomer, unassigned; (+)) [Example 3, (+)-1-(AMINOACETYL)-4-(3-BROMO-8,10-DICHLORO-6,11-DIHYDRO-5H-BENZO[5,6]CYCLO-HEPTA[1,2-b]PYRIDIN-11-YL) PIPERIDINE] | 1100 |
| O=C(O)CCC(=O)N1CCC([C@H]2c3ncc(Br)cc3CCc3cc(Cl)cc(Br)c32)CC1 [Example 49, (+)-SODIUM 4-(3,10-DIBROMO-B-CHLORO-6,11-DIHYDRO-5H-BENZO[5,6]CYCLO-HEPTA[1,2-b]PYRIDIN-11(R)-YL)-GAMMA-OXO-1-PIPERIDININE BUTANOATE] | 270 |
| O=C(CCC(=O)N1CCC(C2c3ncc(Br)cc3CCc3cc(Cl)cc(Cl)c32)CC1)N1CCCC1 (single isomer, unassigned) [Example 14] | 16 |
| NC(=O)CCC(=O)N1CCC(C2c3ncc(Br)cc3CCc3cc(Cl)cc(Cl)c32)CC1 (single isomer, unassigned) [Example 12] | 61 |
| NC(=O)NCCCC(=O)N1CCC(C2c3ncc(Br)cc3CCc3cc(Cl)cc(Cl)c32)CC1 (single isomer, unassigned; (+)) [Example 31] | 58 |
| COC(=O)CCCC(=O)N1CCC([C@H]2c3ncc(Br)cc3CCc3cc(Cl)cc(Br)c32)CC1 [Example 51, (+)-METHYL 4-(3,10-DIBROMO-8-CHLORO-6,11-DIHYDRO-5H-BENZO[5,6]CYCLO-HEPTA[1,2-b]PYRIDIN-11 (R)-YL)-DELTA-OXO-1-PIPERIDININE PENTANOATE] | 19 |
| O=C(O)CCCCC(=O)N1CCC([C@H]2c3ncc(Br)cc3CCc3cc(Cl)cc(Br)c32)CC1 [Example 55, (+)-SODIUM 4-(3,10-DIBROMO-8-CHLORO-6,11-DIHYDRO-5H-BENZO[5,6]CYCLO-HEPTA[1,2-b]PYRIDIN-11(R)-YL)-EPSILON-OXO-1-PIPERIDININE HEXANOATE] | 17 |

same assay, conditions: @ 0.06 μg/μL

| SMILES | FPT inhibition [%] |
| --- | --- |
| O=C(CCCC(=O)N1CCC(C2c3ncc(Br)cc3CCc3cc(Cl)cc(Cl)c32)CC1)Nc1ccccc1 (single isomer, unassigned) [Example 19] | 21 |
| O=C(NCCCCC(=O)N1CCC(C2c3ncc(Br)cc3CCc3cc(Cl)cc(Cl)c32)CC1)c1ccccc1 (centres unmarked) [Example 22] | 41 |

same assay, conditions: @ 88 nM

| SMILES | FPT inhibition [%] |
| --- | --- |
| O=C(CCCN1C(=O)c2ccccc2C1=O)N1CCC(C2c3ncc(Br)cc3CCc3cc(Cl)cc(Br)c32)CC1 (single isomer, unassigned; (+)) [Example 32, (+)-4-(3,10-DIBROMO-8-CHLORO-6,11-DIHYDRO-5H-BENZO[5,6]CYCLO-HEPTA[1,2-b]PYRIDIN-11-YL)-1-[4-(1,3-DIHYDRO-1,3-DIOXO-2H-ISOINDOL-2-YL)-1-OXOBUTYL]PIPERIDINE] | 12 |

same assay, conditions: @ 92 nM

| SMILES | FPT inhibition [%] |
| --- | --- |
| O=C(CCCC(=O)N1CCC(C2c3ncc(Br)cc3CCc3cc(Cl)cc(Cl)c32)CC1)Nc1ccc(Cl)cc1 (single isomer, unassigned) [Example 20] | 0 |

same assay, conditions: @ 93 nM

| SMILES | FPT inhibition [%] |
| --- | --- |
| O=C(NCCCC(=O)N1CCC(C2c3ncc(Br)cc3CCc3cc(Cl)cc(Cl)c32)CC1)c1cccnc1 (single isomer, unassigned) [Example 18] | 9 |

same assay, conditions: @ 93.4 nM

| SMILES | FPT inhibition [%] |
| --- | --- |
| O=C(CCCN1C(=O)c2ccncc2C1=O)N1CCC(C2c3ncc(Br)cc3CCc3cc(Cl)cc(Cl)c32)CC1 (centres unmarked) [Example 33, 4-(8,10-DICHLORO-3-BROMO-6,11-DIHYDRO-5H-BENZO[5,6]CYCLO-HEPTA[1,2-b]PYRIDIN-11-YL)-1-[4-(1,3-DIHYDRO-1,3-DIOXO-2H-PYRROLO-[3,4c]-PYRIDINE-2-YL)-1-OXOBUTYL]PIPERIDINE] | 38.7 |

same assay, conditions: @ 330 nM

| SMILES | FPT inhibition [%] |
| --- | --- |
| CC(C)(C)OC(=O)NCCCC(=O)N1CCC(C2c3ncc(Br)cc3CCc3cc(Cl)cc(Cl)c32)CC1 (centres unmarked) [Example 25] | 47 |
